Our source for the T/C values is PubChem BioAssay AID248 (DTP/NCI, 2004).

Molecules are shown by their SMILES. Values joined by “and” are separate entries in the source; they are usually repeats but may differ in a detail not shown here. Identical values can stand only once. Inconclusive results and toxic doses are left out.

This assay concerns L1210 leukemia ip in BDF1 mice, survival T/C. Kind of assay: NCI In Vivo Anticancer Drug Screen. Data for tumor model L1210 Leukemia (intraperitoneal) in B6D2F1 (BDF1) mice. Particulars: endpoint: mean survival time, higher = longer survival. In short, it runs like this: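 Tumor cells were implanted, animals were treated, and survival was followed. The result divides the treated measurement by the vehicle-control measurement.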

The mark [1] stands for this setting: dose: 100.0 mg/kg/injection, schedule: Q01DX001 (ip), vehicle: saline.
The mark [2] stands for this setting: dose: 200.0 mg/kg/injection, schedule: Q01DX001 (ip), vehicle: saline.
[3] abbreviates: dose: 400.0 mg/kg/injection, schedule: Q01DX001 (ip), vehicle: saline.
[4] abbreviates: dose: 100.0 mg/kg/injection, schedule: Q04DX003 (ip), vehicle: saline.
[5] abbreviates: dose: 100.0 mg/kg/injection, schedule: Q04DX003 (ip), vehicle: gum acacia.
Where [6] appears, read: dose: 200.0 mg/kg/injection, schedule: Q04DX003 (ip), vehicle: gum acacia.
The mark [7] stands for this setting: dose: 400.0 mg/kg/injection, schedule: Q04DX003 (ip), vehicle: gum acacia.
Where [8] appears, read: dose: 10.0 mg/kg/injection, schedule: Q01DX001 (ip), vehicle: other.
Where [9] appears, read: dose: 100.0 mg/kg/injection, schedule: Q01DX001 (ip), vehicle: carboxymethylcellulose (CMC).
Where [10] appears, read: dose: 200.0 mg/kg/injection, schedule: Q01DX001 (ip), vehicle: carboxymethylcellulose (CMC).

With `CC1(C)OC(N)=C(C(N)=O)C1c1ccc(Cl)cc1` (centres undefined), the T/C runs as follows: under setting [1], 97 % of control; under setting [2], 95 % of control; under setting [3], 95 % of control.

As to `CCOC(=O)C(CC(C)C)NP(=O)(CCl)N(CCCl)CCCl` (centres undefined), the T/C is 102 % of control (dose: 25.0 mg/kg/injection, schedule: Q01DX015 (ip), vehicle: other); 104 % of control (dose: 50.0 mg/kg/injection, schedule: Q01DX015 (ip), vehicle: other); 104 % of control under setting [1]; 102 % of control (dose: 100.0 mg/kg/injection, schedule: Q01DX015 (ip), vehicle: other); 95 % of control under setting [4]; 104 % of control under setting [2]. Besides, the T/C was 102 % of control (dose: 200.0 mg/kg/injection, schedule: Q01DX015 (ip), vehicle: other); 95 % of control (dose: 200.0 mg/kg/injection, schedule: Q04DX003 (ip), vehicle: saline); 106 % of control under setting [3]; 91 % of control (dose: 400.0 mg/kg/injection, schedule: Q04DX003 (ip), vehicle: saline).

For `CC(C)CC(=O)CC(Cl)(C(F)(F)F)C(F)(F)F`, the T/C is 100 % of control under setting [5], 100 % of control under setting [6] and 90 % of control under setting [7].

Consider `O=C(Nc1ccc(Cl)cc1C(F)(F)F)Sc1ccc(Cl)cc1`, for which the T/C runs as follows: (dose: 100.0 mg/kg/injection, schedule: Q01DX001 (ip), vehicle: gum acacia) 103 % of control and 104 % of control; (dose: 100.0 mg/kg/injection, schedule: Q01DX009 (ip), vehicle: gum acacia) 92 % of control; (dose: 100.0 mg/kg/injection, schedule: Q04DX002 (ip), vehicle: gum acacia) 99 % of control and 88 % of control; under setting [5], 92 % of control and 87 % of control; (dose: 200.0 mg/kg/injection, schedule: Q01DX001 (ip), vehicle: gum acacia) 98 % of control and 103 % of control; (dose: 200.0 mg/kg/injection, schedule: Q01DX009 (ip), vehicle: gum acacia) 90 % of control. Moreover, the T/C reads like this: (dose: 200.0 mg/kg/injection, schedule: Q04DX002 (ip), vehicle: gum acacia) 101 % of control and 102 % of control; under setting [6], 92 % of control and 109 % of control; (dose: 400.0 mg/kg/injection, schedule: Q01DX001 (ip), vehicle: gum acacia) 100 % of control and 103 % of control; (dose: 400.0 mg/kg/injection, schedule: Q04DX002 (ip), vehicle: gum acacia) 97 % of control and 89 % of control; under setting [7], 97 % of control and 90 % of control.

Take `Cc1c(CNc2ccc(C(=O)NC(CC(=O)O)CC(=O)O)cc2)ccc2nc(N)nc(N)c12`: the T/C by setting is: (dose: 0.11 mg/kg/injection, schedule: Q01DX009 (ip), vehicle: saline) 97 % of control; (dose: 0.15 mg/kg/injection, schedule: Q01DX009 (ip), vehicle: saline) 107 % of control; (dose: 0.17 mg/kg/injection, schedule: Q01DX009 (ip), vehicle: saline) 178 % of control; (dose: 0.27 mg/kg/injection, schedule: Q01DX009 (ip), vehicle: saline) 161 % of control; (dose: 0.62 mg/kg/injection, schedule: Q01DX009 (ip), vehicle: saline) 156 % of control and 187 % of control; (dose: 1.25 mg/kg/injection, schedule: Q01DX009 (ip), vehicle: saline) 112 % of control and 121 % of control. In addition, the T/C (dose: 2.5 mg/kg/injection, schedule: Q04DX003 (ip), vehicle: saline) is 175 % of control; the T/C (dose: 4.4 mg/kg/injection, schedule: Q01DX009 (ip), vehicle: other) was 91 % of control; the T/C under setting [8] is 173 % of control; the T/C (dose: 10.0 mg/kg/injection, schedule: Q01DX001 (ip), vehicle: saline) was 168 % of control; the T/C (dose: 10.0 mg/kg/injection, schedule: Q04DX003 (ip), vehicle: saline) was 102 % of control; the T/C (dose: 20.0 mg/kg/injection, schedule: Q01DX001 (ip), vehicle: saline) is 151 % of control.

`O=P(NC(=S)OCCN1CC1)(NC(=S)OCCN1CC1)NC(=S)OCCN1CC1`: the T/C reads like this: under setting [9], 107 % of control; under setting [10], 96 % of control.

`COc1cc(/C=N/N=C(N)N)ccc1O`: the T/C (dose: 15.0 mg/kg/injection, schedule: Q01DX Z (ip), vehicle: saline) is 95 % of control; the T/C (dose: 30.0 mg/kg/injection, schedule: Q01DX Z (ip), vehicle: saline) is 88 % of control; the T/C (dose: 60.0 mg/kg/injection, schedule: Q01DX Z (ip), vehicle: saline) is 101 % of control; the T/C (dose: 120.0 mg/kg/injection, schedule: Q01DX Z (ip), vehicle: saline) was 97 % of control; the T/C (dose: 240.0 mg/kg/injection, schedule: Q01DX Z (ip), vehicle: saline) is 89 % of control.

For the compound `BrCCN(CCBr)c1ccc2c3c(cccc13)-c1ccccc1-2`, the T/C was 117 % of control (dose: 0.3 mg/kg/injection, schedule: Q01DX Z (ip), vehicle: other); 120 % of control (dose: 0.7 mg/kg/injection, schedule: Q01DX Z (ip), vehicle: other); 123 % of control (dose: 1.5 mg/kg/injection, schedule: Q01DX Z (ip), vehicle: other); 112 % of control (dose: 6.25 mg/kg/injection, schedule: Q01DX009 (ip), vehicle: acetone); 101 % of control (dose: 7.5 mg/kg/injection, schedule: Q01DX Z (ip), vehicle: other); 112 % of control (dose: 11.0 mg/kg/injection, schedule: Q01DX Z (ip), vehicle: other). Also, the T/C by setting is: (dose: 50.0 mg/kg/injection, schedule: Q01DX001 (ip), vehicle: carboxymethylcellulose (CMC)) 124 % of control; under setting [9], 114 % of control; under setting [4], 120 % of control; under setting [10], 124 % of control; (dose: 400.0 mg/kg/injection, schedule: Q01DX001 (ip), vehicle: carboxymethylcellulose (CMC)) 120 % of control.

`COc1ccc([N+](=O)[O-])cc1NS(=O)(=O)c1ccc(Cl)c([N+](=O)[O-])c1`: the T/C by setting is: (dose: 50.0 mg/kg/injection, schedule: Q01DX009 (ip), vehicle: saline with Tween-80) 95 % of control and 90 % of control; (dose: 50.0 mg/kg/injection, schedule: Q04DX003 (ip), vehicle: other) 97 % of control; (dose: 100.0 mg/kg/injection, schedule: Q01DX009 (ip), vehicle: other) 105 % of control; (dose: 100.0 mg/kg/injection, schedule: Q01DX009 (ip), vehicle: saline with Tween-80) 93 % of control and 106 % of control; (dose: 100.0 mg/kg/injection, schedule: Q04DX002 (ip), vehicle: other) 107 % of control and 113 % of control; (dose: 100.0 mg/kg/injection, schedule: Q04DX003 (ip), vehicle: other) 96 % of control. Further, the T/C was 95 % of control (dose: 200.0 mg/kg/injection, schedule: Q01DX009 (ip), vehicle: saline with Tween-80); 96 % of control and 102 % of control (dose: 200.0 mg/kg/injection, schedule: Q04DX002 (ip), vehicle: other); 89 % of control (dose: 200.0 mg/kg/injection, schedule: Q04DX003 (ip), vehicle: other); 87 % of control (dose: 400.0 mg/kg/injection, schedule: Q01DX009 (ip), vehicle: other); 95 % of control (dose: 400.0 mg/kg/injection, schedule: Q01DX009 (ip), vehicle: saline with Tween-80); 101 % of control and 102 % of control (dose: 400.0 mg/kg/injection, schedule: Q04DX002 (ip), vehicle: other).

In the case of `CCOC(=O)c1ccccc1N=Nc1cc(OC)c(N)cc1OC`, the T/C by setting is: (dose: 5.0 mg/kg/injection, schedule: Q01DX001 (ip), vehicle: other) 101 % of control; under setting [8], 111 % of control; (dose: 20.0 mg/kg/injection, schedule: Q01DX001 (ip), vehicle: other) 114 % of control.

Turning to `CC(C)(O)C#CC(C)(C)O`, the T/C is 115 % of control (dose: 100.0 mg/kg/injection, schedule: Q01DX009 (ip), vehicle: saline); 110 % of control (dose: 200.0 mg/kg/injection, schedule: Q01DX009 (ip), vehicle: saline); 110 % of control (dose: 400.0 mg/kg/injection, schedule: Q01DX009 (ip), vehicle: saline).

On to `CCN(C)c1cc2c3c(c1)CCCN3CCC2`, for which the T/C (dose: 5.0 mg/kg/injection, schedule: Q01DX009 (ip), vehicle: saline) was 103 % of control.

Consider `O=C(OC1COC(SCc2ccccc2)C(OC(=O)c2ccccc2)C1OC(=O)c1ccccc1)c1ccccc1` (centres undefined), for which the T/C under setting [1] is 98 % of control, the T/C under setting [2] is 110 % of control and the T/C under setting [3] is 97 % of control.
